{"source": "patent US20050079222A1", "about": "“Production of nanoparticles from methyl vinyl ether and maleic anhydride for the administration of hydrophilic pharmaceuticals, more particularly of puric and pyrimidinic bases” (priority 2001, published 2005)", "origin": "cited, not measured here", "test_system": "tumors", "settings": "versus 5-fluorouracile", "data": [{"molecule": "O=c1[nH]c(=O)n([C@@H]2O[C@H](CO)[C@@H](O)[C@H]2O)cc1F", "note": "[5-fluorouridine, 2,4-dioxo-5-fluoropyrimidine riboside]", "values": [{"measurement": "antitumoral activity, times more potent than 5-fluorouracile and other derivatives", "result": 100, "unit": "times"}]}]}
